Strand notation (5' to 3'): a small letter for the sugar, then the base; units joined by * are phosphorothioate-linked, units joined directly phosphodiester-linked; [ ] holds rarer units or linkages, { } end groups; capitals alone tell only the bases. [PAM-N] = nucleoside carrying a 2'-(butylacetamido)-palmitamide group (palmitic acid C16 conjugate) (N: the base); e = 2'-O-(2-methoxyethyl) (MOE); l = locked nucleic acid (LNA); [5mC] = 5-methylcytosine; d = 2'-deoxy (DNA)
Experiments:
[1] = HbA1c status in ZDF rat (Table 72); assay type: in vivo; conditions: for Percentage HbA1c: ZDF rat, 400 nM/kg i.p. once a week
Method: (§1) ISIS 388625, 388626 and control oligo ISIS 388628 were analyzed for their effect on ZDF rat plasma glucose levels and HbA1c. The leptin receptor deficient Zucker diabetic fatty (ZDF) rat is a useful model for the investigation of type 2 diabetes. Diabetes develops spontaneously in these male rats at ages 8-10 weeks, and is associated with hyperphagia, polyuria, polydipsia, and impaired weight gain, symptoms which parallel the clinical symptoms of diabetes (Phillips M S, et al., 1996, Nat Genet. 13, 18-19). Six week old ZDF rats were injected intraperitoneally with short antisense compound at a dose of 400 nM/kg once a week for twelve weeks. Data are illustrated in Tables 71 and 72.

[2] = Plasma glucose in ZDF rat (Table 71); assay type: in vivo
Method: as §1

ApoB mRNA = ApoB mRNA in liver and estimated ED50, compounds comprising palmitic acid conjugates (Table 95); assay type: in vivo, mouse; conditions: ApoB mRNA in liver, Balb/c mice, relative to saline
Method: 0.4, and 0.16 umol/kg. Each dose group consisted of four animals. A 5-10-5 MOE gapmer was used for a control treatment. Mice were sacrificed approximately 48 hours following the final dose. Liver tissue was collected for RNA isolation, and blood was collected for serum chemistry analyses. ApoB mRNA levels were measured by real-time PCR as described herein. ApoB mRNA levels were normalized to RNA levels as determined by RIBOGREEN, and are presented in Table 95 as percent inhibition relative to ApoB mRNA levels in saline-treated control animals.
At the 2.5 umol/kg dose, ApoB inhibition by the short antisense compounds was greater than observed with a 5-10-5 MOE gapmer at an equivalent dose. […] Triglycerides were reduced at the 2.5 and […] doses of ISIS 387462 and ISIS 391872.

mouse SGLT2 mRNA [3] = assay: Mouse SGLT2 mRNA in kidney, 1-10-1 MOE gapmers, Balb/c mice (Table 65); assay type: in vivo
Method: The short antisense compounds were analyzed for their effect on mouse SGLT2 mRNA levels. Data was taken from three experiments in which Male 6-week old Balb/c mice were dosed twice per week for two weeks with 450, 150, or 50 nmol/kg of one of the above 1-10-1 MOE gapmers given by intraperitoneal injection. Mice were sacrificed 48 hours following last administration and evaluated for SGLT2 mRNA levels in kidney. Target levels were determined by RT, real-time PCR as described by other examples herein. PCR results were normalized to an internal ISIS control.

rat SGLT2 mRNA [4] = assay: Rat SGLT2 mRNA in kidney, 1-10-1 gapmers, 250 nmol/kg (Table 66); assay type: in vivo; conditions: for % change in SGLT2 expression relative to saline: 250 nmol/kg i.p. twice per week for three weeks, Sprague-Dawley rat kidney
Method: The effect of the above 1-10-1 gapmers (see Table 64 above) on rat SGLT2 mRNA levels. Data are taken from four experiments in which male Sprague-Dawley rats (170-200 g) were dosed twice per week for three weeks with 250 nmol/kg given by intraperitoneal injection. Rats were sacrificed 48 hours following last administration and evaluated for SGLT2 mRNA levels in kidney. Target levels were determined by RT, real-time PCR as described by other examples herein. PCR results were normalized to an internal ISIS control.

mouse SGLT2 mRNA [5] = assay: Mouse SGLT2 mRNA in kidney, MOE versus Methyleneoxy BNA gapmers (Table 69); assay type: in vivo; conditions: Balb/c mouse kidney
Method: The effect of ISIS 3796921-10-1 MOE gapmer and ISIS 3886252-8-2 MOE gapmer are compared with the effect of ISIS 3921701-10-1 Methyleneoxy BNA Gapmer and ISIS 3921732-8-2 Methyleneoxy BNA Gapmer (see Table 69) on mouse SGLT2 mRNA levels in vivo. Data are taken from three experiments in which male 6-week old Balb/c mice were dosed twice per week for three weeks with 5, 25 and 125 nmol/kg of either the ISIS 3796921-10-1 MOE gapmer or the ISIS 3886252-8-2 MOE gapmer given by intraperitoneal injection. Mice were sacrificed 48 hours following last administration and evaluated for SGLT2 mRNA levels in kidney. Target levels were determined by RT, real-time PCR as described by other examples herein. PCR results were normalized to an internal ISIS control. The data are expressed as percent change (“+” indicates an increase, “−” indicates a decrease) relative to saline treated animals and are illustrated in Table 69.

rat SGLT2 mRNA [6] = assay: Rat SGLT2 mRNA in kidney, 1-10-1 and 1-10-2 MOE gapmers, Sprague-Dawley rats (Table 63); assay type: in vivo
Description: 1-10-1 and 1-10-2 MOE gapmer antisense compounds, provided in Table 62, were designed to target different regions of the mouse or rat SGLT2 RNA. All short antisense compounds in Table 62 are chimeric oligonucleotides (“gapmers”) either 12 or 13 nucleotides in length, composed of a central “gap” segment consisting of ten 2′-deoxynucleotides, which are flanked on the 5′ side by a one-nucleoside “wing” and on the 3′ side by a two or one-nucleotide “wing”. […] All cytidine residues are 5-methylcytidines.
The short antisense compounds were analyzed for their effect on rat SGLT2 mRNA levels. Data are ranges taken from three experiments in which Male Sprague-Dawley rats (170-200 g) were dosed twice per week for three weeks with 450, 150 or 50 nmol/kg of either a 1-10-1 or 1-10-2 MOE gapmer given by intraperitoneal injection. Rats were sacrificed 48 hours following last administration and evaluated for SGLT2 mRNA levels in kidney. Target levels were determined by RT, real-time PCR as described by other examples herein. PCR results were normalized to an internal ISIS control.

rat SGLT2 mRNA [7] = assay: Rat SGLT2 mRNA in kidney, 1-10-1 and 2-8-2 MOE gapmer (Table 70); assay type: in vivo; conditions: Sprague-Dawley rat kidney
Method: The effect of ISIS 3796921-10-1 MOE gapmer and ISIS 388625 MOE 2-8-2 gapmer (see Table 70) on rat SGLT2 mRNA levels in vivo. […] Rats were sacrificed 48 hours following last administration and evaluated for SGLT2 levels in kidney. Target levels were determined by RT, real-time PCR as described by other examples herein. PCR results were normalized to an internal ISIS control.

mouse SGLT2 mRNA [8] = assay: Mouse SGLT2 mRNA in kidney, additional 1-10-1 and 2-8-2 MOE gapmers (Table 68); assay type: in vivo; conditions: Balb/c mouse kidney
Method: 1-10-1 and 2-8-2 MOE gapmer short antisense compounds were designed to target different regions of the mouse SGLT2 RNA but have complementarity across species. […] All cytidine residues are 5-methylcytidines.
The short antisense compounds were analyzed for their effect on mouse SGLT2 mRNA levels in vivo. Data was taken from three experiments in which male 6-week old Balb/c mice were dosed twice per week for three weeks with 0.5, 0.1, or 0.02 umol/kg of either a 1-10-1 or 2-8-2 MOE gapmer given by intraperitoneal injection. Mice were sacrificed 48 hours following last administration and evaluated for SGLT2 levels in kidney. Target levels were determined by RT, real-time PCR as described by other examples herein. PCR results were normalized to an internal ISIS control.

[9] = single i.p. injection 0.16 umol/kg
[10] = single i.p. injection 0.4 umol/kg
[11] = single i.p. injection 1.0 umol/kg
[12] = 50 nmol/kg i.p. twice per week for two weeks
[13] = 150 nmol/kg i.p. twice per week for two weeks
[14] = 450 nmol/kg i.p. twice per week for two weeks
[15] = 50 nmol/kg i.p. twice per week for three weeks
[16] = 150 nmol/kg i.p. twice per week for three weeks
[17] = 450 nmol/kg i.p. twice per week for three weeks
[18] = 0.02 umol/kg i.p. twice per week for three weeks
[19] = 0.1 umol/kg i.p. twice per week for three weeks
[20] = 0.5 umol/kg i.p. twice per week for three weeks
[21] = ZDF rats, 400 nM/kg i.p. once a week for twelve weeks, compared to PBS and control

388626 (eG*eG*d[5mC]*dA*dT*dG*dA*dG*d[5mC]*dT*eT*e[5mC]) [compound 388626]
Percentage HbA1c ([1]; Day 40): 6.6%
Percentage HbA1c ([1]; Day 55): 5.9%
Percentage HbA1c ([1]; Day 68): 4.0%
Plasma glucose levels ([2]; Day 10, ZDF rat, 400 nM/kg i.p. once a week): 434.7 mg/dL
Plasma glucose levels ([2]; Day 40, ZDF rat, 400 nM/kg i.p. once a week): 300.5 mg/dL
Plasma glucose levels ([2]; Day 55, ZDF rat, 400 nM/kg i.p. once a week): 219.8 mg/dL
Plasma glucose levels ([2]; Day 66, ZDF rat, 400 nM/kg i.p. once a week): 379.8 mg/dL

391871 ([PAM-G]*eG*dT*dA*dC*dA*dT*dG*dG*dA*dA*dG*eT*e[5mC]) [compound 391871]
% Inhib (ApoB mRNA; [9]): 0%
% Inhib (ApoB mRNA; [10]): 5%
% Inhib (ApoB mRNA; [11]): 18%

391872 ([PAM-G]*lG*dT*dA*dC*dA*dT*dG*dG*dA*dA*dG*lT*l[5mC]) [compound 391872]
% Inhib (ApoB mRNA; [9]): 18%
% Inhib (ApoB mRNA; [10]): 50%
% Inhib (ApoB mRNA; [11]): 92%

ISIS 379692: 1-10-1 MOE gapmer, SGLT2 (eT*dG*dT*dT*d[5mC]*d[5mC]*dA*dG*d[5mC]*d[5mC]*d[5mC]*eA)
% change in SGLT2 expression relative to saline (mouse SGLT2 mRNA [3]; [12]): −52.5%
% change in SGLT2 expression relative to saline (mouse SGLT2 mRNA [3]; [13]): −70%
% change in SGLT2 expression relative to saline (mouse SGLT2 mRNA [3]; [14]): −80%
% change in SGLT2 expression relative to saline (rat SGLT2 mRNA [4]): −85%
SGLT2 mRNA, percent change relative to saline treated animals (mouse SGLT2 mRNA [5]; 5 nmol/kg i.p. twice per week for three weeks): −7%
SGLT2 mRNA, percent change relative to saline treated animals (mouse SGLT2 mRNA [5]; 25 nmol/kg i.p. twice per week for three weeks): −46%
SGLT2 mRNA, percent change relative to saline treated animals (mouse SGLT2 mRNA [5]; 125 nmol/kg i.p. twice per week for three weeks): −58%
% change in SGLT2 expression relative to saline (rat SGLT2 mRNA [6]; [15]): −80%
% change in SGLT2 expression relative to saline (rat SGLT2 mRNA [6]; [16]): −85%
% change in SGLT2 expression relative to saline (rat SGLT2 mRNA [6]; [17]): −90%
% change in SGLT2 expression relative to saline (rat SGLT2 mRNA [7]; dose 3.125 umol/kg [sic] i.p. twice per week for three weeks): +30%
% change in SGLT2 expression relative to saline (rat SGLT2 mRNA [7]; dose 12.5 umol/kg [sic] i.p. twice per week for three weeks): −15%
% change in SGLT2 expression relative to saline (rat SGLT2 mRNA [7]; dose 50 umol/kg [sic] i.p. twice per week for three weeks): −65%
% change in SGLT2 expression relative to saline (rat SGLT2 mRNA [7]; dose 200 umol/kg [sic] i.p. twice per week for three weeks): −80%
% change in SGLT2 expression relative to saline (mouse SGLT2 mRNA [8]; [18]): −55%
% change in SGLT2 expression relative to saline (mouse SGLT2 mRNA [8]; [19]): −75%
% change in SGLT2 expression relative to saline (mouse SGLT2 mRNA [8]; [20]): −85%

ISIS 379699: GGCATGAGCTTC 1-10-1 MOE, SGLT2 (eG*dG*d[5mC]*dA*dT*dG*dA*dG*d[5mC]*dT*dT*e[5mC])
% change in SGLT2 expression relative to saline (mouse SGLT2 mRNA [3]; [12]): −42.5%
% change in SGLT2 expression relative to saline (mouse SGLT2 mRNA [3]; [13]): −62.5%
% change in SGLT2 expression relative to saline (mouse SGLT2 mRNA [3]; [14]): −80%
% change in SGLT2 expression relative to saline (rat SGLT2 mRNA [4]): −75%
% change in SGLT2 expression relative to saline (rat SGLT2 mRNA [6]; [15]): −60%
% change in SGLT2 expression relative to saline (rat SGLT2 mRNA [6]; [16]): −75%
% change in SGLT2 expression relative to saline (rat SGLT2 mRNA [6]; [17]): −83%
% change in SGLT2 expression relative to saline (mouse SGLT2 mRNA [8]; [18]): −30%
% change in SGLT2 expression relative to saline (mouse SGLT2 mRNA [8]; [19]): −60%
% change in SGLT2 expression relative to saline (mouse SGLT2 mRNA [8]; [20]): −75%

ISIS 379702 (eG*d[5mC]*dA*d[5mC]*dA*d[5mC]*dA*dG*d[5mC]*dT*dG*e[5mC])
% change in SGLT2 expression relative to saline (mouse SGLT2 mRNA [3]; [12]): −52.5%
% change in SGLT2 expression relative to saline (mouse SGLT2 mRNA [3]; [13]): −72.5%
% change in SGLT2 expression relative to saline (mouse SGLT2 mRNA [3]; [14]): −75%
% change in SGLT2 expression relative to saline (rat SGLT2 mRNA [4]): −25%
% change in SGLT2 expression relative to saline (mouse SGLT2 mRNA [8]; [18]): −40%
% change in SGLT2 expression relative to saline (mouse SGLT2 mRNA [8]; [19]): −65%
% change in SGLT2 expression relative to saline (mouse SGLT2 mRNA [8]; [20]): −70%

ISIS 381408: 1-10-1 MOE gapmer targeting SGLT2 mRNA (TACCGAACACCT; sugars from the 5' end e1 d10 e1, backbone and methylation of C not given here)
% change in SGLT2 expression relative to saline (rat SGLT2 mRNA [4]): −5%
expression of SGLT2 in in vivo rat studies (rat SGLT2 mRNA [4]; 250 nmol/kg twice per week for three weeks): Activity of ISIS 381408 has been shown

ISIS 388626: GGCATGAGCTTC 2-8-2 MOE, SGLT2 (eG*eG*d[5mC]*dA*dT*dG*dA*dG*d[5mC]*dT*eT*e[5mC])
HbA1C [1, 21]: significantly reduced
Plasma glucose levels [2, 21]: significantly reduced
% change in SGLT2 expression relative to saline (mouse SGLT2 mRNA [8]; [18]): −45%
% change in SGLT2 expression relative to saline (mouse SGLT2 mRNA [8]; [19]): −60%
% change in SGLT2 expression relative to saline (mouse SGLT2 mRNA [8]; [20]): −80%

Source: patent publication US8372967B2, “Compounds and methods for modulating expression of GCCR” (Isis Pharmaceuticals, Inc., priority 2006, dated 2013)
